Patent US7524853B2 (Solvay Pharmaceuticals B.V., priority 2003, dated 2009)

Experiments:
Assay type in all cases: cell-based
[1] = target: T1, 17β-hydroxysteroid dehydrogenase type 2 (17β-HSD type 2) (Homo sapiens, UniProt P37059); test: Inhibition of 17β-HSD type 2 in MCF-7 cells stably expressing the isoenzyme (tritium labeled estradiol conversion, HPLC); conditions: MCF7, MCF-7 cells expressing 17β-HSD type 2, 2 nM tritium labeled estradiol; for inhibition at 1 µM: 1 μM test compound, read-out: % Inhibition HSD2 1 μM; for inhibition at 10 µM: 10 μM test compound, read-out: % Inhibition HSD2 10 μM
T1 construct: expressed in transfected cells; host or cells: MCF-7
T1 sequence (P37059 1-387): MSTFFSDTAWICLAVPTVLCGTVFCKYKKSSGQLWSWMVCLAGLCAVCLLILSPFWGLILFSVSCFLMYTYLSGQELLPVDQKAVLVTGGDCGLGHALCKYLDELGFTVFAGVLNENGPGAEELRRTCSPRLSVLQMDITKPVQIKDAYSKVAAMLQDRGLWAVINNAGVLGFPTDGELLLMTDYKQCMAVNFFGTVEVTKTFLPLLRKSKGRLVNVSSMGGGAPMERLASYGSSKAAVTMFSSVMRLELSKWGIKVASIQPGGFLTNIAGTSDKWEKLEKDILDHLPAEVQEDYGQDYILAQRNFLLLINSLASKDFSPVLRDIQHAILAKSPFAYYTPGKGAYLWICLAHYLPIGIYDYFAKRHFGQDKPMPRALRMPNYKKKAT
Method in brief: (§1)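 Percent inhibition derived by comparing substrate conversion with versus without compound, quantified by HPLC–radioflow detection after TCA stop. Cells were stably transfected MCF-7 expressing type 1, 2 or 3 enzyme, given 2 nM labeled estrone, estradiol or androstenedione respectively; compounds tested at two concentrations.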

[2] = target: T2, 17β-hydroxysteroid dehydrogenase type 3 (17β-HSD type 3) (Homo sapiens, UniProt P37058); test: Inhibition of 17β-HSD type 3 in MCF-7 cells stably expressing the isoenzyme (tritium labeled androstenedione conversion, HPLC); conditions: MCF7, MCF-7 cells expressing 17β-HSD type 3, 2 nM tritium labeled androstenedione; for inhibition at 1 µM: 1 μM test compound, read-out: % Inhibition HSD3 1 μM; for inhibition at 10 µM: 10 μM test compound, read-out: % Inhibition HSD3 10 μM
T2 construct: expressed in transfected cells; host or cells: MCF-7
T2 sequence (P37058 1-310): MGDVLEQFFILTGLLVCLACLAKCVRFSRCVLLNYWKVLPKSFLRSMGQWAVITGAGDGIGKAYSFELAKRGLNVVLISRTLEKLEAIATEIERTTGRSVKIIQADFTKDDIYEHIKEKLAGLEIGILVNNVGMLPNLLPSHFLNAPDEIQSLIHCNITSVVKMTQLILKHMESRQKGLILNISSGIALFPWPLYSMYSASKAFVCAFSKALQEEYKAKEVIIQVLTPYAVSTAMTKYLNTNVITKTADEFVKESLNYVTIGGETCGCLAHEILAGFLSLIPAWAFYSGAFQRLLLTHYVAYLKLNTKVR
Method in brief: as §1

[3] = target: T3, 17β-hydroxysteroid dehydrogenase type 1 (17β-HSD type 1) (Homo sapiens, UniProt P14061); test: Inhibition of 17β-HSD type 1 in MCF-7 cells stably expressing the isoenzyme (tritium labeled estrone conversion, HPLC); conditions: MCF7, MCF-7 cells expressing 17β-HSD type 1, 2 nM tritium labeled estrone; for inhibition at 1 µM: 1 μM test compound, read-out: % Inhibition HSD1 1 μM; for inhibition at 10 µM: 10 μM test compound, read-out: % Inhibition HSD1 10 μM
T3 construct: expressed in transfected cells; host or cells: MCF-7
T3 sequence (P14061 1-328): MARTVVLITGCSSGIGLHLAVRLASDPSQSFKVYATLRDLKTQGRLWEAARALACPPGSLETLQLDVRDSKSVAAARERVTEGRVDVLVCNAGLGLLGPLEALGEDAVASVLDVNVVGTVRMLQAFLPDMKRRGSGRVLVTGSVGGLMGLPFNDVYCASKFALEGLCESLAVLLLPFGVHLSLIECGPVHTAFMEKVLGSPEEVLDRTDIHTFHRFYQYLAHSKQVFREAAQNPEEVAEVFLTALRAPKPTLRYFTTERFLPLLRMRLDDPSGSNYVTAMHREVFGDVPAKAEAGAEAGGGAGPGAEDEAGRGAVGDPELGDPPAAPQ
Method in brief: as §1

SMILES	inhibition at 1 µM [1] [%]	inhibition at 10 µM [1] [%]	inhibition at 1 µM [2] [%]	inhibition at 10 µM [2] [%]	inhibition at 1 µM [3] [%]	inhibition at 10 µM [3] [%]
O=C1c2sc3nc(-c4ccccc4)n(Cc4ccccc4)c(=O)c3c2CCC1(Br)Br [No. 59, 3-Benzyl-7,7-dibromo-2-phenyl-6,7-dihydro-3H,5H-benzo[4,5]thieno[2,3-d]pyrimidine-4,8-dione]	36.7	40	17.6	31.7	24	20.8
O=c1c2c(nc(-c3ccccc3)n1Cc1ccccc1)sc1c(O)cccc12 [No. 60, 3-Benzyl-8-hydroxy-2-phenyl-3H-benzo[4,5]thieno[2,3-d]pyrimidine-4-one]	44.2	76.9	10	45.7	16.3	36
O=c1c2c3c(sc2nc(-c2cccs2)n1Cc1ccccc1)CCCC3 [No. 61, 3-Benzyl-2-thiophen-2-yl-5,6,7,8-tetrahydro-3H-benzo[4,5]thieno[2,3-d]pyrimidin-4-one]	25.7	23.8	20	26.4	17.7	26.2
O=C1CCCc2c1sc1nc(-c3cccs3)n(Cc3ccccc3)c(=O)c21 [No. 62, 3-Benzyl-2-thiophen-2-yl-6,7-dihydro-3H,5H-benzo[4,5]thieno[2,3-d]pyrimidine-4,8-dione]	18.9	26.4	18	28	25.8	32
O=C1CCCc2c1sc1nc(-c3ccc(Br)s3)n(Cc3ccccc3)c(=O)c21 [No. 64, 3-Benzyl-2-(5-bromothiophen-2-yl)-6,7-dihydro-3H,5H-benzo[4,5]thieno[2,3-d]pyrimidine-4,8-dione]	15.4	16.6	12.1	49	15	20.7
O=C1c2sc3nc(-c4ccc(Br)s4)n(Cc4ccccc4)c(=O)c3c2CCC1Br (stereo not drawn) [No. 65, 3-Benzyl-7-bromo-2-(5-bromothiophen-2-yl)-6,7-dihydro-3H,5H-benzo[4,5]thieno[2,3-d]pyrimidine-4,8-dione]	19.2	34.6	5	38	1.2	7.8
O=C1c2sc3nc(-c4ccc(Br)s4)n(Cc4ccccc4)c(=O)c3c2CCC1(Br)Br [No. 66, 3-Benzyl-7,7-dibromo-2-(5-bromothiophen-2-yl)-6,7-dihydro-3H,5H-benzo[4,5]thieno[2,3-d]pyrimidine-4,8-dione]	27	37.6	0.3	7.4	7.8	8.9
O=c1c2c(nc(-c3cccs3)n1Cc1ccccc1)sc1c(O)cccc12 [No. 67, 3-Benzyl-8-hydroxy-2-thiophen-2-yl-3H-benzo[4,5]thieno[2,3-d]pyrimidine-4-one]	55.2	80.3	19.1	33.4	14.7	29.6
O=c1c2c(nc(-c3ccc(Br)s3)n1Cc1ccccc1)sc1c(O)cccc12 [No. 68, 3-Benzyl-2-(5-bromothiophen-2-yl)-8-hydroxy-3H-benzo[4,5]thieno[2,3-d]pyrimidin-4-one]	15.5	49	7.3	40.7	9	21.5
O=C(OCCn1c(-c2cccs2)nc2sc3c(c2c1=O)CCCC3)c1cccs1 [No. 69, Thiophene-2-carboxylic acid 2-(4-oxo-2-thiohen-2-yl-5,6,7,8-tetrahydro-4H-benzo[4,5]thieno[2,3-d]pyrimidin-3-yl)-ethyl ester]	10.8	11.9	-1.1	3.9	4.7	10.5
O=C(OCCn1c(-c2cccs2)nc2sc3c(c2c1=O)CCCC3=O)c1cccs1 [No. 70, Thiophene-2-carboxylic acid 2-(4,8-dioxo-2-thiohen-2-yl-5,6,7,8-tetrahydro-4H-benzo[4,5]thieno[2,3-d]pyrimidin-3-yl)-ethyl ester]	13.1	17.9	-4.1	44.2	15.3	39.4
O=C(OCCn1c(-c2cccs2)nc2sc3c(c2c1=O)CCC(Br)C3=O)c1cccs1 (stereo not drawn) [No. 71, Thiophene-2-carboxylic acid 2-(7-bromo-4,8-dioxo-2-thiohen-2-yl-5,6,7,8-tetrahydro-4H-benzo[4,5]thieno[2,3-d]pyrimidin-3-yl)-ethyl ester]	28.9	24.5	21.9	36	20.7	20.8
O=C(OCCn1c(-c2cccs2)nc2sc3c(c2c1=O)CCC(Br)(Br)C3=O)c1cccs1 [No. 72, Thiophene-2-carboxylic acid 2-(7,7-dibromo-4,8-dioxo-2-thiohen-2-yl-5,6,7,8-tetrahydro-4H-benzo[4,5]thieno[2,3-d]pyrimidin-3-yl)-ethyl ester]	18	53.9	16.1	64.4	15.3	15.2
O=C(OCCn1c(-c2cccs2)nc2sc3c(O)cccc3c2c1=O)c1cccs1 [No. 73, Thiophene-2-carboxylic acid 2-(8-hydroxy-4-oxo-2-thiohen-2-yl-4H-benzo[4,5]thieno[2,3-d]pyrimidin-3-yl)-ethyl ester]	58.3	90.5	37.9	82.6	26.8	32.8
COCCn1c(-c2cccs2)nc2sc3c(c2c1=O)CCCC3 [No. 74, 3-(2-Methoxyethyl)-2-thiophen-2-yl-5,6,7,8-tetrahydro-3H-benzo[4,5]thieno[2,3-d]pyrimidin-4-one]	33.2	26.1	8.3	8.3	11.7	12.2
COCCn1c(-c2cccs2)nc2sc3c(c2c1=O)CCCC3=O [No. 75, 3-(2-Methoxyethyl)-2-thiophen-2-yl-6,7-dihydro-3H,5H-benzo[4,5]thieno[2,3-d]pyrimidine-4,8-dione]	20.2	23.1	5	17	14.5	11.9
COCCn1c(-c2cccs2)nc2sc3c(c2c1=O)CCC(Br)C3=O (stereo not drawn) [No. 76, 7-Bromo-3-(2-methoxyethyl)-2-thiophen-2-yl-6,7-dihydro-3H,5H-benzo[4,5]thieno[2,3-d]pyrimidine-4,8-dione]	44.6	43.4	47.1	81.4	35.8	44.1
